# Test results published in publication PMC11475281, “A Novel Liver Cancer-Selective Histone Deacetylase Inhibitor Is Effective against Hepatocellular Carcinoma and Induces Durable Responses with Immunotherapy” (ACS Pharmacology & Translational Science, 2024).
# Like-named read-outs stand apart in the source and are kept apart here.
# What was measured:
# HDAC8 = molecular target: T1, HDAC8 (Homo sapiens, UniProt Q9BY41); assay: HDAC isoform inhibition (BPS Bioscience); conditions: read-out: HDAC8 IC50; Table S1
# T1 sequence (Q9BY41 1-377): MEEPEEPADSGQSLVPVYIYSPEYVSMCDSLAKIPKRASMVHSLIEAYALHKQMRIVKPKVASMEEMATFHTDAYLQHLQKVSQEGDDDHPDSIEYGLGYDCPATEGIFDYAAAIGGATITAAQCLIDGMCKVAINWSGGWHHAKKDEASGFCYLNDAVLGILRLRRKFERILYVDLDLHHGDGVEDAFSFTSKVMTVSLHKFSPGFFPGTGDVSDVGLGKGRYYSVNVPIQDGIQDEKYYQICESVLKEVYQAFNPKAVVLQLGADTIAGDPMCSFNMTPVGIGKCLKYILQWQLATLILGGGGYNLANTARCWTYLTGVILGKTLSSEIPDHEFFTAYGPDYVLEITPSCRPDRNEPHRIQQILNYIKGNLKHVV
# HDAC2 = HDAC2 (Homo sapiens, UniProt Q92769); assay: HDAC isoform inhibition (BPS Bioscience); conditions: read-out: HDAC2 IC50; Table S1
# Hep-G2 (HCC) = assay: MTS cell viability assay, 72 h; type: cell-based, human; conditions: for IC50: Table S2, read-out: Anti-proliferation IC50 Hep-G2; for Hep-G2-selectivity (VERO/Hep-G2): ratio of VERO to Hep-G2 cytotoxicity
# Source text: (§1) We then screened STR-V-53 and all the synthesized glycosylated HDACi for their effects on the viability of three cell lines: A549 (lung adenocarcinoma), Hep-G2 (HCC), and VERO (a normal kidney epithelial cell). We used SORA and STR-V-48, a previously disclosed nonglycosylated compound, as controls.[25] […] Additionally, compound STR-V-167, the peracetylated analog of STR-V-53, largely retained the Hep-G2 selectivity of STR-V-53 (Table S2). Subsequently, we evaluated the effects of STR-V-53 on cell proliferation using a panel of human HCC cell lines (Huh-7, SK-Hep-1, and Hep3B) as well as Kupffer cells (liver resident macrophages) by MTS assay. We observed that STR-V-53 is 7- to 16-fold more cytotoxic against these HCC cell lines relative to the Kupffer cells (Figure 1g). […] Based on their weak HDAC and cell proliferation inhibition activities, we de-emphasized further evaluation of the class III compounds.
# (§2) 10-017-CV), supplemented with 10% fetal bovine serum (FBS) (Corning, 35-010-CV). Hep-G2 cells were cultured in phenol red-free Minimum Essential Medium (MEM) (Corning, 17-305-CV), supplemented with 10% fetal bovine serum (FBS). SK-Hep-1 in ATCC-formulated EMEM (ATCC® 30–2003™); Huh-7 in DMEM (containing 4 mM L-glutamine and 1 g/L glucose) with […]
# (§3) Kupffer Cell Media (Sekisui XenoTech, LLC, Cat. #K8700). Cells were seeded into a 96-well plate (2000 counts/100uL) for 24 h prior to treatment and then treated with various drug concentrations for 72 h. All drugs were dissolved in media with DMSO concentration maintained at 1%. The effect of compounds on cell viability was measured using the MTS assay (CellTiter 96 Aqueous One Solution and CellTiter 96 Non-Radioactive Cell Proliferation Assays, Promega, Madison, WI) as described by the manufacturer. IC50s were determined using Prism GraphPad 8. […]
# HDAC6 = molecular target: T2, HDAC6 (Homo sapiens, UniProt Q9UBN7); assay: HDAC isoform inhibition (BPS Bioscience); conditions: read-out: HDAC6 IC50; Table S1
# T2 sequence (Q9UBN7 1-1215): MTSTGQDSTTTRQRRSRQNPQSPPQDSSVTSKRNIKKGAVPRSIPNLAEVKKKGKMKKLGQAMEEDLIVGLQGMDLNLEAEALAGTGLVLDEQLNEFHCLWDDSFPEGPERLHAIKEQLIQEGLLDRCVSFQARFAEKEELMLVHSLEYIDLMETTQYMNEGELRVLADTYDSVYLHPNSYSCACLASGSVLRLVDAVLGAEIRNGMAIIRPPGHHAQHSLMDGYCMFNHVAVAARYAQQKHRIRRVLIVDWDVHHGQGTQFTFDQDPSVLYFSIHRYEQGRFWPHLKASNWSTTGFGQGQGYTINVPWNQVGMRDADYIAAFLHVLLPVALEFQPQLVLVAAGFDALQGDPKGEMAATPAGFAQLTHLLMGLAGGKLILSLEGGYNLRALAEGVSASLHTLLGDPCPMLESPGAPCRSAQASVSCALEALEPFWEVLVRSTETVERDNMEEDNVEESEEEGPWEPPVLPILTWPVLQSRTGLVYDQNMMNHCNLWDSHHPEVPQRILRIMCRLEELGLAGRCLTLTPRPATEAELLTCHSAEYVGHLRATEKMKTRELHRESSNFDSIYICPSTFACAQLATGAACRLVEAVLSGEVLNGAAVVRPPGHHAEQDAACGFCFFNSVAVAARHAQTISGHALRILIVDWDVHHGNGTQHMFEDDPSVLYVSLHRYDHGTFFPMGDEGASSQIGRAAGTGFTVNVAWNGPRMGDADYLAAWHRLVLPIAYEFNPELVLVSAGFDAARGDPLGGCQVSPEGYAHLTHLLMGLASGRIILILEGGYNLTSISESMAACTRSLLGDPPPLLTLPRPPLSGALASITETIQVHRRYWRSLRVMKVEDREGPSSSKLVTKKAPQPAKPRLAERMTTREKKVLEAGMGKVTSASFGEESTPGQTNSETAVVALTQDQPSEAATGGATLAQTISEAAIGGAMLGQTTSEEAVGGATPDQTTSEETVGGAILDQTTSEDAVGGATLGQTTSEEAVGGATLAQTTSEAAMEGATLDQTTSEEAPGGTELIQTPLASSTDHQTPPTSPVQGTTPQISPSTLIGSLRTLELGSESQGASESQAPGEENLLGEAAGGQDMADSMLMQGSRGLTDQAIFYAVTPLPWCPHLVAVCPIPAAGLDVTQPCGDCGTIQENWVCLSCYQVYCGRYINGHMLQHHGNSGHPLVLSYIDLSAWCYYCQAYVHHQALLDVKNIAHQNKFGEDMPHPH
# [1] = system: VERO (a normal kidney epithelial cell); assay: MTS cell viability assay, 72 h; type: cell-based; conditions: Table S2, read-out: Anti-proliferation IC50 VERO
# Source text: as §1, §2, §3
# [2] = system: A549 (lung adenocarcinoma); assay: MTS cell viability assay, 72 h; type: cell-based; conditions: Table S2, read-out: Anti-proliferation IC50 A549
# Source text: as §1, §2, §3
# HDAC1 = HDAC1 (Homo sapiens, UniProt Q13547); assay: HDAC isoform inhibition (BPS Bioscience); conditions: read-out: HDAC1 IC50; Table S1
# HCC = system: HCC; set-up: method as in PMID 22915658; conditions: HCC patients on belinostat treatment, NCT00321594; cited from earlier work
# Sequence of HDAC1 (Q13547 whole entry, canonical isoform): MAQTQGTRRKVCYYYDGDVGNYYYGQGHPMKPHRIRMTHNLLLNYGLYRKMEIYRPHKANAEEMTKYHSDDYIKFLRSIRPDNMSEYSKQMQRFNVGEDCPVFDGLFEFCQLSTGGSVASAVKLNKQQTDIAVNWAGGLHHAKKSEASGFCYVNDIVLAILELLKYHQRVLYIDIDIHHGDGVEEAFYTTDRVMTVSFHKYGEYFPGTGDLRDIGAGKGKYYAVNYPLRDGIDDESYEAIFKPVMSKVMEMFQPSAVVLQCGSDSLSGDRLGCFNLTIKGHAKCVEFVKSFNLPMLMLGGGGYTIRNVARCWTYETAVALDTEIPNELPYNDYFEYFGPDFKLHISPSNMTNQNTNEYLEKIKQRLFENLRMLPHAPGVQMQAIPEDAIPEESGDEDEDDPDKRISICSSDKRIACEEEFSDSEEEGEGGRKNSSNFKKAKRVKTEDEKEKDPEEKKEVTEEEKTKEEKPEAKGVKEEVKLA
# Sequence of HDAC2 (Q92769 whole entry, canonical isoform): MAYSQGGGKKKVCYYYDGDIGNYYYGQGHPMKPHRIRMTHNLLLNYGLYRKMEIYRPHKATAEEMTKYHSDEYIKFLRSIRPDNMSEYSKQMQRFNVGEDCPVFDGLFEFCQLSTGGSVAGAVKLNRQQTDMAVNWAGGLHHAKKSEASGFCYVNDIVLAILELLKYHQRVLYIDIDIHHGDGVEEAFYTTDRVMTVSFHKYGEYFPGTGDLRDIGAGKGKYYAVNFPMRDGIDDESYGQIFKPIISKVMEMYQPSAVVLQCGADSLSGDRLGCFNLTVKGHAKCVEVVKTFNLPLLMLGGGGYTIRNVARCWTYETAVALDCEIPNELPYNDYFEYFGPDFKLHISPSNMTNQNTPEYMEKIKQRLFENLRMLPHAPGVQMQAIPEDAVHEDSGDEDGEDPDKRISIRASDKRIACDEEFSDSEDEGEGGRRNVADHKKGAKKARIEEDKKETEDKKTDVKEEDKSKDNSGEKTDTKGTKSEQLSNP
SMILES,IC50 (HDAC8) [nM],IC50 (HDAC2) [nM],IC50 (Hep-G2 (HCC)) [nM],IC50 (HDAC6) [nM],IC50 [1] [nM],IC50 [2] [nM],IC50 (HDAC1) [nM],Median overall survival (OS) (HCC) [months],Median progression-free survival (PFS) (HCC) [months],Hep-G2-selectivity (VERO/Hep-G2) (Hep-G2 (HCC)),"IC50 (Hep-G2 (HCC); Homo sapiens, HepG2) [nM]","IC50 ([1]; Chlorocebus sabaeus, Vero) [nM]","IC50 ([2]; Homo sapiens, A549) [nM]"
O=C(CCCCCCn1cc(-c2ccc3cc(O[C@@H]4O[C@H](CO)[C@@H](O)[C@H](O)[C@H]4O)ccc3c2)nn1)NO [STR-II-36],319,10.4,7500 ± 800,0.72,33600 ± 5500,20100 ± 1100,3.28,,,,,,
O=C(/C=C/c1cccc(S(=O)(=O)Nc2ccccc2)c1)NO [belinostat],,,,,,,,6.60,2.64,,,,
CC(=O)OCC1OC(Oc2ccc(-c3cn(CCCCCCC(=O)NO)nn3)cc2)C(OC(C)=O)C(OC(C)=O)C1OC(C)=O (stereo not shown) [STR-V-167],311,66.4,10100 ± 1200,2.61,> 100000,> 100000,31.8,,,,,,
CC(=O)O[C@H]1[C@H](Oc2ccc(-c3cn(CCCCCCC(=O)NO)nn3)cc2)O[C@H](C)C[C@@H]1N(C)C [STR-V-165],806,27.5,9600 ± 3400,5.22,76400,33700 ± 1800,10.3,,,8 fold,,,
CC(=O)OCC1OC(Oc2ccc(-c3cn(CCCCCCC(=O)NO)nn3)cc2)C(OC(C)=O)C(OC(C)=O)C1OC(C)=O (stereo not shown) [STR-V-176],271,4.2,8000 ± 900,1.05,77400 ± 5600,64700 ± 7000,1.43,,,10 fold,,,
CC(=O)OCC1OC(Oc2ccc3cc(-c4cn(CCCCCCC(=O)NO)nn4)ccc3c2)C(OC(C)=O)C(OC(C)=O)C1OC(C)=O (stereo not shown) [STR-V-177],718,13.2,7400 ± 900,1.65,19200 ± 900,39600 ± 600,2.2,,,,,,
"CNC(=O)c1cc(Oc2ccc(NC(=O)Nc3ccc(Cl)c(C(F)(F)F)c3)cc2)ccn1 [SORA, sorafenib, reference compound]",,,,,,,,,,about three times more cytotoxic,3700 ± 400,12200 ± 100,18100 ± 2900
"COc1ccc2cc(-c3cn(CCCCCCC(=O)NO)nn3)ccc2c1 [STR-V-48, N-hydroxy-7-(4-(6-methoxynaphthalen-2-yl)-1H-1,2,3-triazol-1-yl)heptanamide, reference compound]",,,,,,,,,,,400 ± 40,200 ± 50,1400 ± 200
